The results in this text go back to the supplement of paper PMC10331698.

± gives the standard deviation of the averaged measurements.

Common to all, as to test: level (log10 ratio to DMSO vehicle control); higher = higher biomarker level / cell amount than vehicle control
Holding throughout (details): in DMSO

Compound in assay [1]: O=P(O)(O)CCC(F)(F)C(F)(F)C(F)(F)C(F)(F)C(F)(F)C(F)(F)F [2-(Perfluorohexyl)ethylphosphonic acid]
The method, then: (§1)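 BioMAP Diversity Plus panel of 12 human primary cell co-culture systems (3C, 4H, LPS, SAg, BT, BF4T, BE3C, CASM3C, HDF3CGF, KF3CT, MyoF, Mphg). Compounds were added 1 h before stimulation and left for 24 h (MyoF 48 h; BT 72 h for soluble read-outs or 6 d for IgG). Biomarkers were read by ELISA, cytotoxicity by SRB, PBMC viability and proliferation by Alamar Blue. Each well value was divided by the mean of 8 DMSO control wells on the same plate and log10 transformed; duplicate blinded samples were tested at 4 concentrations.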

Compound in assay [2]: OCC(F)(F)C(F)(F)C(F)(F)C(F)(F)C(F)(F)C(F)(F)C(F)(F)C(F)(F)CO [1H,1H,10H,10H-Perfluorodecane-1,10-diol]
The procedure: as §1

Compound in assay [3]: OCCCCC(F)(F)C(F)(F)C(F)(F)C(F)(F)F [4:4 Fluorotelomer alcohol]
The method, then:
as §1

As to lMphg:CXCL8/IL-8, the “level (log10)” value was -0.008 ± 0.0028 in assay [1] (6700 nM); -0.0315 ± 0.033 in assay [1] (20000 nM); 0.0385 ± 0.026 in assay [1] (60000 nM); 0.03 ± 0.035 in assay [2] (6700 nM); 0.0055 ± 0.018 in assay [2] (20000 nM); -0.19 in assay [2] (60000 nM). Further, the results for the “level (log10)” value in assay [3] (6700 nM), in assay [3] (20000 nM) and in assay [3] (60000 nM) were -0.04 ± 0.035, -0.0355 ± 0.029 and 0.022 ± 0.021, respectively.
Turning to 3C:CD62E/E-Selectin, the “level (log10)” value in assay [1] (6700 nM) is -0.0115 ± 0.0078; in assay [1] (20000 nM), 0 ± 0.0085; in assay [1] (60000 nM), -0.001 ± 0.024; in assay [2] (6700 nM), -0.0065 ± 0.005; in assay [2] (20000 nM) it was -0.0275 ± 0.0092; in assay [2] (60000 nM) it was -0.082. In addition, the “level (log10)” value in assay [3] (6700 nM) is -0.004 ± 0.0014; in assay [3] (20000 nM) it was -0.0055 ± 0.032; in assay [3] (60000 nM) it was 0.0105 ± 0.012.
With 3C:CD141/Thrombomodulin, the “level (log10)” value in assay [1] (6700 nM) was 0.01 ± 0.024; in assay [1] (20000 nM), 0.02 ± 0.051; in assay [1] (60000 nM), 0.0895 ± 0.044; in assay [2] (6700 nM) it was -0.027 ± 0.037; in assay [2] (20000 nM), -0.016 ± 0.0014; in assay [2] (60000 nM), 0.055. In addition, the “level (log10)” value was -0.0225 ± 0.035 in assay [3] (6700 nM), -0.0265 ± 0.067 in assay [3] (20000 nM) and -0.007 ± 0.076 in assay [3] (60000 nM).
With HDF3CGF:M-CSF, the “level (log10)” value in assay [1] (6700 nM) was 0.0025 ± 0.0092; in assay [1] (20000 nM), 0.0265 ± 0.0092; in assay [1] (60000 nM) it was 0.013 ± 0.014; in assay [2] (6700 nM), 0.0095 ± 0.035; in assay [2] (20000 nM), 0.001 ± 0.038; in assay [2] (60000 nM) it was -0.304. Besides, the “level (log10)” value in assay [3] (6700 nM) was -0.008; in assay [3] (20000 nM), -0.0015 ± 0.0092; in assay [3] (60000 nM), -0.014 ± 0.0014.
With HDF3CGF:CCL2/MCP-1, the “level (log10)” value was -0.0335 ± 0.0021 in assay [1] (6700 nM); -0.013 ± 0.023 in assay [1] (20000 nM); -0.053 ± 0.023 in assay [1] (60000 nM); -0.01 in assay [2] (6700 nM); -0.0565 ± 0.036 in assay [2] (20000 nM); -0.724 in assay [2] (60000 nM). Besides, the “level (log10)” value in assay [3] (6700 nM) came out at 0.004 ± 0.0014; in assay [3] (20000 nM), 0.008 ± 0.0099; in assay [3] (60000 nM), 0.007 ± 0.016.
For BE3C:PAI-I, the “level (log10)” value was -0.036 ± 0.0028 in assay [1] (6700 nM); -0.0065 ± 0.012 in assay [1] (20000 nM); 0.052 ± 0.04 in assay [1] (60000 nM); 0.041 ± 0.0085 in assay [2] (6700 nM); -0.0655 ± 0.0035 in assay [2] (20000 nM); -0.192 in assay [2] (60000 nM). Further, the “level (log10)” value in assay [3] (6700 nM) was -0.026 ± 0.02; in assay [3] (20000 nM), -0.002 ± 0.031; in assay [3] (60000 nM), 0.011.
With lMphg:sIL-10, the “level (log10)” value is -0.0015 ± 0.083 in assay [1] (6700 nM); -0.091 ± 0.0014 in assay [1] (20000 nM); -0.0775 ± 0.09 in assay [1] (60000 nM); -0.0265 ± 0.06 in assay [2] (6700 nM); -0.357 ± 0.27 in assay [2] (20000 nM); -1.1 in assay [2] (60000 nM). Further, the “level (log10)” value was -0.096 ± 0.11 in assay [3] (6700 nM), -0.032 ± 0.0028 in assay [3] (20000 nM) and -0.014 ± 0.041 in assay [3] (60000 nM).
On to KF3CT:CD54/ICAM-1, for which the “level (log10)” value in assay [1] (6700 nM) is -0.0015 ± 0.011; in assay [1] (20000 nM) it was 0.006 ± 0.028; in assay [1] (60000 nM), 0.02 ± 0.02; in assay [2] (6700 nM) it was -0.002 ± 0.0085; in assay [2] (20000 nM), -0.018 ± 0.0057; in assay [2] (60000 nM) it was -0.125. Further, the “level (log10)” value in assay [3] (6700 nM) is 0.0095 ± 0.019; in assay [3] (20000 nM), -0.0025 ± 0.018; in assay [3] (60000 nM), 0.005 ± 0.024.
As to MyoF:Collagen III, the “level (log10)” value is 0.003 ± 0.0042 in assay [1] (6700 nM); 0.009 ± 0.0014 in assay [1] (20000 nM); -0.009 ± 0.031 in assay [1] (60000 nM); -0.0305 ± 0.0092 in assay [2] (6700 nM); -0.042 ± 0.0099 in assay [2] (20000 nM); -0.378 in assay [2] (60000 nM). Also, the “level (log10)” value in assay [3] (6700 nM) stood at 0.0085 ± 0.012; in assay [3] (20000 nM) it was 0.0015 ± 0.0078; in assay [3] (60000 nM), 0.003 ± 0.017.
Consider HDF3CGF:CXCL9/MIG, for which the “level (log10)” value is -0.003 ± 0.0099 in assay [1] (6700 nM); 0.008 ± 0.017 in assay [1] (20000 nM); -0.006 ± 0.0057 in assay [1] (60000 nM); 0.012 ± 0.013 in assay [2] (6700 nM); -0.037 ± 0.014 in assay [2] (20000 nM); -0.789 in assay [2] (60000 nM). For the same test system, the “level (log10)” value in assay [3] (6700 nM) is -0.0045 ± 0.0092; in assay [3] (20000 nM) it was 0.0035 ± 0.0092; in assay [3] (60000 nM) it was 0.006 ± 0.02.
In the case of KF3CT:PAI-I, the “level (log10)” value was -0.033 ± 0.037 in assay [1] (6700 nM); -0.0505 ± 0.028 in assay [1] (20000 nM); -0.039 ± 0.025 in assay [1] (60000 nM); -0.0015 ± 0.021 in assay [2] (6700 nM); 0.023 ± 0.018 in assay [2] (20000 nM); -0.341 in assay [2] (60000 nM). Moreover, the “level (log10)” value in assay [3] (6700 nM) was -0.012 ± 0.017; in assay [3] (20000 nM) it was -0.0075 ± 0.013; in assay [3] (60000 nM), -0.009 ± 0.013.
With CASM3C:M-CSF, the “level (log10)” value in assay [1] (6700 nM) is 0.0025 ± 0.005; in assay [1] (20000 nM), 0.0115 ± 0.011; in assay [1] (60000 nM), -0.0055 ± 0.037; in assay [2] (6700 nM), -0.052 ± 0.027; in assay [2] (20000 nM), -0.054 ± 0.014; in assay [2] (60000 nM), -0.065. In addition, the “level (log10)” value in assay [3] (6700 nM) was 0.0085 ± 0.011; in assay [3] (20000 nM), -0.005 ± 0.024; in assay [3] (60000 nM), 0.021 ± 0.047.
lMphg:SRB-Mphg: the “level (log10)” value in assay [1] (6700 nM) is -0.029 ± 0.023; in assay [1] (20000 nM), -0.0255 ± 0.026; in assay [1] (60000 nM), -0.0125 ± 0.032; in assay [2] (6700 nM) it was 0.003 ± 0.028; in assay [2] (20000 nM), -0.0625 ± 0.084; in assay [2] (60000 nM) it was -0.775. Also, the “level (log10)” value in assay [3] (6700 nM) was 0.008 ± 0.016; in assay [3] (20000 nM), -0.009 ± 0.0057; in assay [3] (60000 nM), -0.01 ± 0.0085.
